According to ChEMBL document CHEMBL1135157, “Focused library approach for identification of new N-acylphenylalanines as VCAM/VLA-4 antagonists” (Bioorg Med Chem Lett, 2002):

How the values were obtained:
Integrin alpha-4/beta-1 = Integrin alpha-4/beta-1 (Homo sapiens, UniProt P05556+P13612); test: Inhibition of Very late antigen 4 of Ramos cell adhesion to vascular cell adhesion molecule 1; format: cell-based
[1] = Inhibition of Very late antigen 4/vascular cell adhesion molecule 1 inhibition activity in an ELISA assay
[2] = Inhibition of Very late antigen 4/vascular cell adhesion molecule 1 activity in ELISA assay, at 10 nM concentration

Sequence of Integrin alpha-4/beta-1 (P05556 whole entry): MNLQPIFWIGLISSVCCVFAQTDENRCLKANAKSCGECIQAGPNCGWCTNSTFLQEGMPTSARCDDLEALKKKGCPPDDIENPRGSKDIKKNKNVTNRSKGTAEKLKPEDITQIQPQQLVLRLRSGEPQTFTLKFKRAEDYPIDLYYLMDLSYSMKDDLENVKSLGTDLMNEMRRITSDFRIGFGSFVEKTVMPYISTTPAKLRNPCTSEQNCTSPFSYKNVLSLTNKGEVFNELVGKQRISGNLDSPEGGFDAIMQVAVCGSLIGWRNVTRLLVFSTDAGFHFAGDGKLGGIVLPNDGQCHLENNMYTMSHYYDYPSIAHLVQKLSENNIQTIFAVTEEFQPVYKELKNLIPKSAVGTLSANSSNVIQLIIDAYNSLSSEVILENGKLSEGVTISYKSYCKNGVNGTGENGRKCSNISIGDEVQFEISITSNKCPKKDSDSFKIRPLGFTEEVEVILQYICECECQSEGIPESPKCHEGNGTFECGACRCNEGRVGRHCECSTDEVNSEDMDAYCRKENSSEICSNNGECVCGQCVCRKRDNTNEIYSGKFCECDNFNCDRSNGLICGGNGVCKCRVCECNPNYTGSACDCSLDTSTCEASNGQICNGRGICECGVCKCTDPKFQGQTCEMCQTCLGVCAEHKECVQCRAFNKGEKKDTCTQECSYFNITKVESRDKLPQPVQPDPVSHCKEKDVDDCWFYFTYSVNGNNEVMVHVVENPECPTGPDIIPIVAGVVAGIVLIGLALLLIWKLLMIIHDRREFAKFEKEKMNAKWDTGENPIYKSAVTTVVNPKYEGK
Sequence of Integrin alpha-4/beta-1 (P13612 whole entry): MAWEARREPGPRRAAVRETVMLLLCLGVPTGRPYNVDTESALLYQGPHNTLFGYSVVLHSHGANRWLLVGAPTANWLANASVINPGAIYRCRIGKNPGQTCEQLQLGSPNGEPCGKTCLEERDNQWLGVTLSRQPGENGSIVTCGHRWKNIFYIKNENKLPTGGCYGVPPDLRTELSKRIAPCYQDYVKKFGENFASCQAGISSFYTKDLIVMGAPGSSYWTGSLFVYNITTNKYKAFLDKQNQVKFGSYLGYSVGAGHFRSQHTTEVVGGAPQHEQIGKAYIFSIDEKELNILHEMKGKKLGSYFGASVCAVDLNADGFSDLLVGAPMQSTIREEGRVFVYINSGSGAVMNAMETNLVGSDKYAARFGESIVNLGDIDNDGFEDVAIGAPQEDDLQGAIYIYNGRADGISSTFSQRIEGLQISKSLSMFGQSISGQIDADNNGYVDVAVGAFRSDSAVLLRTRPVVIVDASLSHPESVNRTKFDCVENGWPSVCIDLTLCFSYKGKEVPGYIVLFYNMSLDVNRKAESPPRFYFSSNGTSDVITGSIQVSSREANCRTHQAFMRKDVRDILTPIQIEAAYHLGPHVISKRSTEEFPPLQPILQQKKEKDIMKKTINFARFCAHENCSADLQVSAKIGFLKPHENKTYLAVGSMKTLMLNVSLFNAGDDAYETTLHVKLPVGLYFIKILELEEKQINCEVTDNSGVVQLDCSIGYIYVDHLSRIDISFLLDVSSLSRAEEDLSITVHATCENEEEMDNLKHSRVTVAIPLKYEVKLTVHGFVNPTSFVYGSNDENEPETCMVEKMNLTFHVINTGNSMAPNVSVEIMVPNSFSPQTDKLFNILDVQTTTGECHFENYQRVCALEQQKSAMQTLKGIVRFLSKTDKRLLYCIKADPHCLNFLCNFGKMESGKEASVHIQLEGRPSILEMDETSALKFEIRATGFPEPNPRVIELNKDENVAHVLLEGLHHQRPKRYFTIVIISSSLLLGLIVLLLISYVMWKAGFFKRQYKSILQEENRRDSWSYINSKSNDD

## O=C(Nc1ccc(C[C@H](NC(=O)[C@H]2CCC(=O)N2Cc2ccccc2)C(=O)O)cc1)c1c(Cl)cccc1Cl
Integrin alpha-4/beta-1
  IC50: 12 nM
[1]
  IC50: 0.37 nM

## O=C(N[C@@H](Cc1ccc(NC(=O)c2ccnc3ccccc23)cc1)C(=O)O)c1ccccc1F
[2]
  inhibition: 42%

## Cc1cccc(C)c1C(=O)N[C@@H](Cc1ccc(NC(=O)c2ccnc3ccccc23)cc1)C(=O)O
[2]
  inhibition: 74%
[1]
  IC50: 2.5 nM

## O=C(N[C@@H](Cc1ccc(NC(=O)c2ccnc3ccccc23)cc1)C(=O)O)c1cccnc1Cl
[2]
  inhibition: 61%
[1]
  IC50: 6.6 nM

## CCCCC(C)(CC)C(=O)N[C@@H](Cc1ccc(NC(=O)c2ccnc3ccccc23)cc1)C(=O)O (some centres undefined)
[2]
  inhibition: 49%
[1]
  IC50: 8.2 nM

## CC(=O)N1CSC[C@H]1C(=O)N[C@@H](Cc1ccc(NC(=O)c2ccnc3ccccc23)cc1)C(=O)O
[2]
  inhibition: 37%

## O=C(N[C@@H](Cc1ccc(NC(=O)c2ccnc3ccccc23)cc1)C(=O)O)c1ccccc1Br
[2]
  inhibition: 81%
[1]
  IC50: 2.2 nM

## C[C@H]1CC[C@@](C)(C(=O)N[C@@H](Cc2ccc(NC(=O)c3ccnc4ccccc34)cc2)C(=O)O)C1(C)C
[2]
  inhibition: 51%
[1]
  IC50: 2.3 nM

## O=C(N[C@@H](Cc1ccc(NC(=O)c2ccnc3ccccc23)cc1)C(=O)O)c1c(F)cccc1F
[2]
  inhibition: 64%
[1]
  IC50: 1.7 nM

## O=C(Nc1ccc(C[C@H](NC(=O)C2CCc3ccccc3C2)C(=O)O)cc1)c1ccnc2ccccc12 (some centres undefined)
[2]
  inhibition: 15%

## COc1ccc(C2(C(=O)N[C@@H](Cc3ccc(NC(=O)c4ccnc5ccccc45)cc3)C(=O)O)CCCC2)cc1
[2]
  inhibition: 73%
[1]
  IC50: 1.4 nM

## O=C(Nc1ccc(C[C@H](NC(=O)[C@@H]2CCCN2C(=O)CCc2ccccc2)C(=O)O)cc1)c1ccnc2ccccc12
[2]
  inhibition: 65%
[1]
  IC50: 2.1 nM

## O=C(N[C@@H](Cc1ccc(NC(=O)c2ccnc3ccccc23)cc1)C(=O)O)c1ccccc1Cl
[2]
  inhibition: 68%
[1]
  IC50: 2.9 nM

## O=C(Nc1ccc(C[C@H](NC(=O)C23CC4CC(CC(C4)C2)C3)C(=O)O)cc1)c1ccnc2ccccc12
[2]
  inhibition: 72%
[1]
  IC50: 2.4 nM

## O=C(Nc1ccc(C[C@H](NC(=O)C2CCC2)C(=O)O)cc1)c1ccnc2ccccc12
[2]
  inhibition: 17%

## O=C(Nc1ccc(C[C@H](NC(=O)C2CC2)C(=O)O)cc1)c1ccnc2ccccc12
[2]
  inhibition: 12%

## CC(=O)N1CCC[C@H]1C(=O)N[C@@H](Cc1ccc(NC(=O)c2ccnc3ccccc23)cc1)C(=O)O
[2]
  inhibition: 61%
[1]
  IC50: 2 nM

## O=C(CCc1ccccc1)N[C@@H](Cc1ccc(NC(=O)c2ccnc3ccccc23)cc1)C(=O)O
[2]
  inhibition: 12%

## CCC(C(=O)N[C@@H](Cc1ccc(NC(=O)c2ccnc3ccccc23)cc1)C(=O)O)c1ccccc1 (some centres undefined)
[2]
  inhibition: 49%
[1]
  IC50: 5.8 nM

## O=C(Nc1ccc(C[C@H](NC(=O)C2CCCCC2)C(=O)O)cc1)c1ccnc2ccccc12
[2]
  inhibition: 37%

## O=C(Nc1ccc(C[C@H](NC(=O)C2(c3ccccc3)CCCC2)C(=O)O)cc1)c1nccc2ccccc12
Integrin alpha-4/beta-1
  IC50: 1300 nM
[1]
  IC50: 9.8 nM

## CC1(C)C(C(=O)N[C@@H](Cc2ccc(NC(=O)c3ccnc4ccccc34)cc2)C(=O)O)C1(C)C
[2]
  inhibition: 33%

## O=C(Nc1ccc(C[C@H](NC(=O)C2(c3ccccc3)CCCC2)C(=O)O)cc1)c1ccnc2ccccc12 (stereo in doubt; 56)
Integrin alpha-4/beta-1
  IC50: 590 nM
[1]
  IC50: 2.7 nM

## O=C(Nc1ccc(C[C@H](NC(=O)[C@@H]2CCCN2C(=O)c2ccccc2)C(=O)O)cc1)c1ccnc2ccccc12
[2]
  inhibition: 18%

## O=C(N[C@@H](Cc1ccc(NC(=O)c2ccnc3ccccc23)cc1)C(=O)O)C(=O)c1ccccc1
[2]
  inhibition: 13%

## O=C(Nc1ccc(C[C@H](NC(=O)C2(c3ccccc3)CCCC2)C(=O)O)cc1)c1c(Cl)cccc1Cl
Integrin alpha-4/beta-1
  IC50: 98 nM
[1]
  IC50: 1.7 nM

## O=C(Nc1ccc(C[C@H](NC(=O)C2(c3ccccc3)CCCC2)C(=O)O)cc1)c1ccccc1C(F)(F)F
[1]
  IC50: 10 nM

## O=C(Nc1ccc(C[C@H](NC(=O)[C@@H]2CSCN2C(=O)c2ccccc2)C(=O)O)cc1)c1ccnc2ccccc12
[2]
  inhibition: 24%

## O=C(Nc1ccc(C[C@H](NC(=O)C2(c3ccccc3)CCCC2)C(=O)O)cc1)c1ccccc1
[1]
  IC50: 23 nM

## CC(C)C(C(=O)N[C@@H](Cc1ccc(NC(=O)c2ccnc3ccccc23)cc1)C(=O)O)c1ccccc1 (some centres undefined)
[2]
  inhibition: 73%
[1]
  IC50: 4.6 nM

## CC1(C(=O)N[C@@H](Cc2ccc(NC(=O)c3ccnc4ccccc34)cc2)C(=O)O)CC1(Cl)Cl (some centres undefined)
[2]
  inhibition: 69%
[1]
  IC50: 3 nM

## O=C(Nc1ccc(C[C@H](NC(=O)C2(c3ccccc3)CCCCC2)C(=O)O)cc1)c1ccnc2ccccc12
[2]
  inhibition: 67%
[1]
  IC50: 5.6 nM

## O=C(N[C@@H](Cc1ccc(NC(=O)c2ccnc3ccccc23)cc1)C(=O)O)c1ccccc1
[2]
  inhibition: 19%

## Cc1noc(C)c1C(=O)N[C@@H](Cc1ccc(NC(=O)c2ccnc3ccccc23)cc1)C(=O)O
[2]
  inhibition: 46%

## O=C(Nc1ccc(C[C@H](NC(=O)C2(c3ccccc3)CCCC2)C(=O)O)cc1)c1cccnc1Oc1ccccc1
Integrin alpha-4/beta-1
  IC50: 2400 nM
[1]
  IC50: 6.1 nM

## CC1(C(=O)N[C@@H](Cc2ccc(NC(=O)c3ccnc4ccccc34)cc2)C(=O)O)CCCCC1
[2]
  inhibition: 49%
[1]
  IC50: 7 nM

## COc1ccc(C2(C(=O)N[C@@H](Cc3ccc(NC(=O)c4ccnc5ccccc45)cc3)C(=O)O)CCCCC2)cc1
[2]
  inhibition: 77%
[1]
  IC50: 1.2 nM

## O=C(Nc1ccc(C[C@H](NC(=O)C2(c3ccccc3)CCCC2)C(=O)O)cc1)c1ccnc2ccccc12 (stereo in doubt; 46) [listing 1 of 2 here]
[2]
  inhibition: 68%

## O=C(Nc1ccc(C[C@H](NC(=O)C2(c3ccc(Cl)cc3)CCCC2)C(=O)O)cc1)c1ccnc2ccccc12
[2]
  inhibition: 53%
[1]
  IC50: 6.4 nM

## Cc1cccc(C(=O)N[C@@H](Cc2ccc(NC(=O)c3ccnc4ccccc34)cc2)C(=O)O)c1C
[2]
  inhibition: 31%

## O=C(Nc1ccc(C[C@H](NC(=O)[C@@H]2CSCN2C(=O)CCc2ccccc2)C(=O)O)cc1)c1ccnc2ccccc12
[2]
  inhibition: 53%
[1]
  IC50: 1.9 nM

## CC(C)(C)C(=O)N[C@@H](Cc1ccc(NC(=O)c2ccnc3ccccc23)cc1)C(=O)O
[2]
  inhibition: 23%

## O=C(N[C@@H](Cc1ccc(NC(=O)c2ccnc3ccccc23)cc1)C(=O)O)c1ccccc1[N+](=O)[O-]
[2]
  inhibition: 73%
[1]
  IC50: 4.7 nM

## O=C(Nc1ccc(C[C@H](NC(=O)C2(c3ccccc3)CCCC2)C(=O)O)cc1)c1ccnc2ccccc12 (stereo in doubt; 46) [listing 2 of 2 here]
[1]
  IC50: 3.4 nM

## O=C(Nc1ccc(C[C@H](NC(=O)C2(c3ccccc3)CC2)C(=O)O)cc1)c1ccnc2ccccc12
[2]
  inhibition: 19%

## Cc1cccc(C)c1C(=O)N[C@@H](Cc1ccc(NC(=O)c2c(Cl)cccc2Cl)cc1)C(=O)O
Integrin alpha-4/beta-1
  IC50: 81 nM
[1]
  IC50: 1.2 nM

## N#CC1(C(=O)N[C@@H](Cc2ccc(NC(=O)c3ccnc4ccccc34)cc2)C(=O)O)CCCC1
[2]
  inhibition: 64%
[1]
  IC50: 7.6 nM

## Cc1cc(C)c(C(=O)N[C@@H](Cc2ccc(NC(=O)c3ccnc4ccccc34)cc2)C(=O)O)c(C)c1
[2]
  inhibition: 45%

## CCC(C)(C)C(=O)N[C@@H](Cc1ccc(NC(=O)c2ccnc3ccccc23)cc1)C(=O)O
[2]
  inhibition: 30%

## Cc1ccc(C2(C(=O)N[C@@H](Cc3ccc(NC(=O)c4ccnc5ccccc45)cc3)C(=O)O)CCCC2)cc1
[2]
  inhibition: 63%
[1]
  IC50: 9.1 nM

## O=C(Nc1ccc(C[C@H](NC(=O)C2CCCC2)C(=O)O)cc1)c1ccnc2ccccc12
[2]
  inhibition: 25%
